These results are taken from patent US9926324B2, “Heteroaromatic compounds as PI3 kinase modulators and methods of use” (Calitor Sciences, LLC, priority 2012, dated 2018).

Data set [1] is described as follows: Compound stability in rat liver microsomes. The format is in vitro ADME. Particulars: for Rat T1/2 / half-life at 5 μM: rat liver microsomes 0.5 mg protein/mL, compound 5 μM, NADPH 1.0 mM, 37° C.; for half-life at 5 μM / CLint scaled at 5 μM: pH 7.4; for half-life at 5 μM: read-out: Rat T1/2; for CLint scaled at 5 μM: rat liver microsomes, in vivo CLint extrapolated. The method, boiled down:
(§1)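 Compounds at 5 μM were incubated with human or rat liver microsomes (0.5 mg protein/mL) and 1.0 mM NADPH in 100 mM phosphate pH 7.4 (0.05% DMSO) at 37 °C, sampled 0–60 min. Remaining parent, quantified by LC/MS/MS as % of zero time, gave extrapolated CLint.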

A short description of data set [2]: Pharmacokinetic profiles in mice after intravenous and oral administration. To be noted: Mouse; for F: oral dose generally 5 or 10 mg/kg; for AUC(0-t) / half-life / Vd: plasma; for Vd: read-out: Vss. The data set is classed as in vivo. How it is done: (§2) The compounds disclosed herein are assessed in pharmacokinetic studies in mice, rats, dogs or monkeys. The compounds are administered as a water solution, 2% HPMC+1% TWEEN® 80 in water solution, 5% DMSO+5% solutol in saline, 4% MC suspension or capsule. For the intravenous administration, the animals are generally given at 1 or 2 mg/kg dose. For the oral (p.o.) dosing, mice and rats are generally given 5 or 10 mg/kg dose, and dogs and monkeys are generally given 10 mg/kg dose. The blood samples (0.3 mL) are drawn at 0.25, 0.5, 1.0, 2.0, 3.0, 4.0, 6.0, 8.0, 12 and 24 h time points or 0.083, 0.25, 0.5, 1.0, 2.0, 4.0, 6.0, 8.0 and 24 h time points and centrifuged at 3,000 or 4000 rpm for 2 to 10 min. The plasma solutions are collected, stored at −20° C. or −70° C. until analyzed by LC/MS/MS as described above.

Data set [3] is described as follows: Pharmacokinetic profiles in rats after intravenous and oral administration. The format is in vivo. Particulars: for F: oral dose generally 5 or 10 mg/kg; for AUC(0-t) / half-life / Vd: rat, plasma; for Vd: read-out: Vss. The method, boiled down: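 Mice, rats, dogs or monkeys dosed i.v. at 1 or 2 mg/kg, or orally at 5 or 10 mg/kg (rodents) or 10 mg/kg (dogs, monkeys), as solution, suspension or capsule. Plasma sampled from 0.083 or 0.25 h up to 24 h, analysed by LC/MS/MS.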

Data set [4] in a line: Pharmacokinetic profiles in monkeys after intravenous and oral administration. The format is in vivo. Particulars: Monkey; for F: iv dose 1 mg/kg, oral dose generally 10 mg/kg; for Cl/F / AUC(0-t) / half-life / Vd: iv dosing 1 mg/kg; for AUC(0-t) / half-life / Vd: plasma; for Vd: read-out: Vss. How it is done: as §2
Data set [5] in a line: Compound stability in human liver microsomes. The data set is classed as in vitro ADME. To be noted: for Human T1/2 / half-life at 5 μM: human liver microsomes 0.5 mg protein/mL, compound 5 μM, NADPH 1.0 mM, 37° C.; for half-life at 5 μM / CLint scaled at 5 μM: pH 7.4; for half-life at 5 μM: read-out: Human T1/2; for CLint scaled at 5 μM: human liver microsomes, in vivo CLint extrapolated. The method, boiled down:
as §1

The next data set has as its target T1, mTOR (h) (Homo sapiens, UniProt P42345).
T1 construct: purchased Millipore UK Ltd (assay service)
Description: mTOR (h) kinase assay (33P-ATP, filter). The format is biochemical. On the procedure: mTOR (h) is incubated with 50 mM HEPES pH 7.5, 1 mM EDTA, 0.01% Tween 20, 2 mg/mL substrate, 3 mM Manganese Chloride and [γ-^33P-ATP] (specific activity approx. 500 cpm/pmol, concentration as required). The reaction is initiated by the addition of the MnATP mix. After incubation for 40 minutes at room temperature, the reaction is stopped by the addition of 3% phosphoric acid solution. 10 μL of the reaction is then spotted onto a P30 filtermat and washed three times for 5 minutes in 75 mM phosphoric acid and once in methanol prior to drying and scintillation counting.
The kinase assays described herein were performed at Millipore UK Ltd, Dundee Technology Park, Dundee DD2 1SW, UK.

A further data set deals with U87MG glioblastoma cells. The data set is described as follows: Tumor xenograft model (U87MG), tumor growth inhibition. The format is in vivo, athymic nude mice. On the procedure: The efficacy of compounds disclosed herein was evaluated in a standard murine model of tumorigenesis. Human tumor cells (U87MG glioblastoma cells from ATCC) were expended in culture, harvested, and injected subcutaneously onto the rear flank of 6-7 week old female athymic nude mice (BALB/cA nu/nu, Hunan SLAC Laboratory Animal, Co.) (n=6-10 for vehicle group and for each dosing group). When tumors reached a volume of 100-250 mm^3, animals were randomly divided into vehicle control (for example, 5% DMSO+70% Captisol® (30%), 7% HCl (pH1), 18% Captisol® (30%); or 7% DMSO, 7% HCl (pH1), 70% Captisol® (30%), 16% Captisol® (30%), or the like) and compound groups. Subsequent administration of compound by oral gavage begins anywhere from day 0 to day 15 post tumor cell challenge and generally continues with once a day for the duration of the experiment.
Progression of tumor growth is assessed by tumor volumes and recorded as a function of time. The long (L) and short (W) axes of the subcutaneous tumors were measured with calipers twice weekly, and the tumor volume (TV) calculated as (L×W^2)/2). TGI was calculated from the difference between the median tumor volumes of vehicle-treated and drug-treated mice, expressed as a percentage of the median tumor volume of the vehicle-treated control group, by the following relation:
Initial statistical analysis is done by repeated measures analysis of variance (RMANOVA), followed by Scheffe psot hoc testing for multiple comparisons. Vehicle alone (5% DMSO+70% Captisol® (30%), 7% HCl (pH1), 18% Captisol® (30%); or 7% DMSO, 7% HCl (pH1), 70% Captisol® (30%), 16% Captisol® (30%), or the like) is the negative control.

For orientation: AUC(0-t) means exposure summed from dosing to a finite time, without extrapolation to infinity. By IC50 is commonly meant the concentration that inhibits the measured activity by half. A higher IC50 goes with a need for much substance. In the case of `COc1ncc(-c2ccc3ncc(C#CCO)n3n2)cc1NS(=O)(=O)c1ccc(F)cc1F` [Ex. 9, 2,4-difluoro-N-(5-(3-(3-hydroxyprop-1-yn-1-yl)imidazo[1,2-b]pyridazin-6-yl)-2-methoxypyridin-3-yl)benzenesulfonamide], the “Rat T1/2” value in data set [1] is on record as “∞”. Further, the F in data set [2] (iv dose 2 mg/kg) is 118.7%; in data set [3] (iv dose 1 mg/kg) it was 104.2%; in data set [4], 27.3%. In addition, the values for the Cl/F in data set [2] (iv dosing 2 mg/kg), in data set [3] (iv dosing 1 mg/kg) and in data set [4] were 6.17 mL/min/kg, 2.33 mL/min/kg and 7.5 mL/min/kg, respectively. Besides, the AUC(0-t) in data set [2] (iv dosing 2 mg/kg) worked out at 5330 ng·h/mL; in data set [3] (iv dosing 1 mg/kg), 7490 ng·h/mL; in data set [4] it was 2370 ng·h/mL. Besides, the half-life in data set [2] (iv dosing 2 mg/kg) is 4.02 h; in data set [3] (iv dosing 1 mg/kg), 4.1 h; in data set [4], 3.59 h. Also, the values for the Vd in data set [2] (iv dosing 2 mg/kg), in data set [3] (iv dosing 1 mg/kg) and in data set [4] were 0.57 L/kg, 0.37 L/kg and 0.39 L/kg, respectively. Also, the “Human T1/2” value in data set [5] is “∞”. This compound also yielded an IC50 against mTOR (h) of 9 nM. Also, the “TGI % U87MG” value is given as 23% in the data set with U87MG glioblastoma cells (1 mg/kg oral gavage, 12 days); 26% in the data set with U87MG glioblastoma cells (3 mg/kg oral gavage, 12 days); 62% with U87MG glioblastoma cells (10 mg/kg oral gavage, 12 days).
Broadly, the CLint scaled is the rate of metabolic loss divided by the concentration. With `COc1ncc(-c2ccc3ncc(C#CCO)n3c2)cc1NS(=O)(=O)c1ccc(F)cc1F` [Ex. 15, 2,4-difluoro-N-(5-(3-(3-hydroxyprop-1-yn-1-yl)imidazo[1,2-a]pyridin-6-yl)-2-methoxypyridin-3-yl)benzenesulfonamide], the results for the half-life at 5 μM in data set [1] and in data set [5] were 2.01 h and 8.39 h, respectively. For the same compound, the CLint scaled at 5 μM in data set [1] was 20.6 mL/min/kg; in data set [5], 3.45 mL/min/kg. The figures for the F in data set [2] (iv dose 1 mg/kg), in data set [3] (iv dose 2 mg/kg) and in data set [4] were 116.9%, 97.0% and 55.4%, respectively. In addition, the values for the AUC(0-t) in data set [2] (iv dosing 1 mg/kg), in data set [3] (iv dosing 2 mg/kg) and in data set [4] were 20000 ng·h/mL, 25600 ng·h/mL and 3200 ng·h/mL, respectively. Moreover, the half-life in data set [2] (iv dosing 1 mg/kg) was 2.83 h; in data set [3] (iv dosing 2 mg/kg) it was 3.14 h; in data set [4] it was 5.89 h. Further, the figures for the Cl/F in data set [3] (iv dosing 2 mg/kg) and in data set [4] were 1.3 mL/min/kg and 5.33 mL/min/kg, respectively. Also, the Vd amounted to 0.22 L/kg in data set [3] (iv dosing 2 mg/kg) and 0.76 L/kg in data set [4]. Moreover, half-maximal inhibition against mTOR (h) (IC50) was put at 34 nM. Besides, the “TGI % U87MG” value in the data set on U87MG glioblastoma cells (3 mg/kg oral gavage, 12 days) came to 28%; with U87MG glioblastoma cells (10 mg/kg oral gavage, 12 days), 51%.
With `COc1ncc(-c2ccc3ncc(C#CC(C)O)n3c2)cc1NS(=O)(=O)c1ccc(F)cc1F` (centres unmarked) [Ex. 16, 2,4-difluoro N (5 (3 (3 hydroxybut-1-yn-1-yl)imidazo[1,2-a]pyridin-6-yl)-2-methoxypyridin-3-yl)benzenesulfonamide], in data set [1], the half-life at 5 μM came out at 0.894 h and the CLint scaled at 5 μM was 46.3 mL/min/kg. The compound also had a F in data set [3] (iv dose 1 mg/kg) of 99.77%. In addition, in data set [3] (iv dosing 1 mg/kg), the Cl/F is 1.67 mL/min/kg, the AUC(0-t) was 19400 ng·h/mL, the half-life is 2.65 h and the Vd worked out at 0.35 L/kg. In addition, in data set [5], the half-life at 5 μM turned out to be 5.22 h and the CLint scaled at 5 μM is 5.55 mL/min/kg. For the same compound, the IC50 against mTOR (h) was determined as 31 nM. Moreover, in the data set on U87MG glioblastoma cells (3 mg/kg oral gavage, 12 days), the “TGI % U87MG” value is recorded as 14%. Moreover, in the data set with U87MG glioblastoma cells (10 mg/kg oral gavage, 12 days), the “TGI % U87MG” value stood at 43%.
On to `COc1ncc(-c2ccc3ncc(C#N)n3n2)cc1NS(=O)(=O)c1ccc(F)cc1F` [Ex. 24, N-(5-(3-cyanoimidazo[1,2-b]pyridazin-6-yl)-2-methoxypyridin-3-yl)-2,4-difluorobenzenesulfonamide], for which, in data set [1], the “Rat T1/2” value is listed as “∞”. In addition, the F came to 72.6% in data set [2] (iv dose 2 mg/kg), 108% in data set [3] (iv dose 2 mg/kg) and 69.8% in data set [4]. Moreover, the Cl/F is 0.33 mL/min/kg in data set [2] (iv dosing 2 mg/kg), 4 mL/min/kg in data set [3] (iv dosing 2 mg/kg) and 3.67 mL/min/kg in data set [4]. The AUC(0-t) was 96100 ng·h/mL in data set [2] (iv dosing 2 mg/kg), 8400 ng·h/mL in data set [3] (iv dosing 2 mg/kg) and 4640 ng·h/mL in data set [4]. The half-life in data set [2] (iv dosing 2 mg/kg) is 5.25 h; in data set [3] (iv dosing 2 mg/kg) it was 3.06 h; in data set [4], 6.05 h. Besides, the results for the Vd in data set [2] (iv dosing 2 mg/kg), in data set [3] (iv dosing 2 mg/kg) and in data set [4] were 0.14 L/kg, 0.55 L/kg and 0.64 L/kg, respectively. Further, the “Human T1/2” value in data set [5] was “∞”. At mTOR (h), the IC50 is 3 nM. In addition, the “TGI % U87MG” value in the data set on U87MG glioblastoma cells (0.3 mg/kg oral gavage, 9 days) is reported as 53%; in the data set with U87MG glioblastoma cells (1 mg/kg oral gavage, 9 days) it was 84%; in the data set with U87MG glioblastoma cells (3 mg/kg oral gavage, 9 days), 108%.
